# Measured values taken from patent US6543181B1, “Fruit fly attractant compositions” (Iowa State University Research Foundation, Inc., priority 2001, dated 2003).
# Tests used:
# [1] = tested on: Drosophila melanogaster adult fruit flies; assay: Attraction-trapant behavioral bioassay (cup traps in screen cages); type: in vivo; conditions: for Catches per day (mean ± S.E.): 100-150 flies released
# Protocol: Three different sizes of screen cages (w×h×l: 26 cm×26 cm×30 cm; 48×61×61; and 88×36×46) were used for the trapping experiments. Trapping experiments were carried out either in the laboratories, or in nearby green houses.
# The attraction-trapant assay traps were constructed from cylindrical, clear plastic jelly cups (4.0 cm I.D. at top, 3.0 cm I.D. bottom; 2.5 cm high) with a tightly fitting paper lid. The lids were pre-drilled with a hole having a diameter of about 2 mm, which was the only aperture through which volatiles from candidate attractants could emanate, and also the only entrance through which attracted flies could enter the trap chamber. In all experiments, a 1-cm-long, 0.5-cm-diameter piece of cotton dental wick was used as the substrate onto which different compositions of potential attractants were loaded for testing, and then the wick was placed in the bottom of the cup and the lid then sealed in position at the beginning of testing.
# Traps containing a series of compositions to be compared were tested in a randomized, complete-block design, with one replicate of a treatment series deployed per cage. The traps were placed in an array with usually approximately 15 cm between traps. If three treatments were to be compared (including control), the array took the form of a triangle. If there were four treatments, then the four trap-cups formed a square.
# No glue or toxicant was used inside the traps, and captures depended on the ability of the attractant-trapant composition to both attract the fruit flies as well as retain them in the chamber by keeping them from wandering back to the entrance hole on the lid and exiting through it. During these assays, observations of the fruit flies' behavior were often made, and they could routinely be observed flying slowly around the cage before descending to one of the traps on the floor of the cage, landing on it, and then walking more or less directly to the hole on the lid and entering the trap.
# […] […] During this period the trap positions were rotated at several hour intervals in order to minimize any possible trap position effects.
# [2] = tested on: Drosophila melanogaster antennae; set-up: key to the marks not given beside the values
# [3] = Table 3, 10 mg in cup trap, traps checked daily for 5 days
# [4] = Table 4, ratios of acetic acid and 2-phenylethanol, total lure 10 mg, no water added, checked daily for 5 days
SMILES,"Catches per day (mean ± S.E.) [1, 3]",further results
CC(=O)OCCc1ccccc1 [2-phenylethyl acetate],1.87 ± 0.81,
CC(=O)OCc1ccccc1 [phenylmethyl acetate],0.5 ± 0.27,
"C=CCc1ccc(OC)c(OC)c1 [1,2-dimethoxy-4-(2-propenyl)-benzene]",,EAG activity [2]: +++
CCOC(=O)c1ccccc1 [ethyl benzoate],0.25 ± 0.16,
OCCc1ccccc1 [2-phenylethanol],3.15 ± 1.63,"Catches per day (mean ± S.E.) ([1]; Table 3, 1 mg in cup trap, traps checked daily for 5 days): 0.5 ± 0.29; Catches per day (mean ± S.E.) ([1]; Table 3, 5 mg in cup trap, traps checked daily for 5 days): 1.25 ± 0.63; Catches per day (mean ± S.E.) [1, 4]: 0 ± 0"
CCOC(=O)C=Cc1ccccc1 [Ethyl cinnamate],0.75 ± 0.49,
CC(=O)O [Acetic acid],,"Catches per day (mean ± S.E.) [1, 4]: 3.0 ± 1.08; Trap catches ([1]; Table 13, effect of ethyl acetate, 8 replicates): 0.25 ± 0.16"
CCOC(=O)Cc1ccccc1 [ethylphenyl acetate],1.5 ± 0.5,
CCOC(=O)c1ccccc1O [ethyl salicylate],0.37 ± 0.18,
CCCCOC(C)=O [butyl acetate],,EAG activity [2]: +++
